Test results taken from article PMC10283505, “CVM-1118 (foslinanib), a 2-phenyl-4-quinolone derivative, promotes apoptosis and inhibits vasculogenic mimicry via targeting TRAP1” (Pathology and Oncology Research, 2023).

What was measured:
[1] = test system: HIF-1α; assay: Western blot of HIF-1α protein (hypoxia); format: cell-based, human; conditions: hypoxia 72 h
Experimental: Changes in the expression HIF-1α protein in SK-MEL28, SK-OV3, MDA-MB-231 and COLO205 cells in response to treatment with CVM-1125 was performed as follows: 5.0 × 10^6 cells were grown under hypoxic conditions (as previously described) for 72 h, with or without 100 nM CVM-1125 in T175 culture flasks, then sub-confluent cultures harvested and whole cell protein lysates prepared and analyzed by Western blot (as above). Thirty micrograms of protein was loaded per lane of the gel for each sample followed by detection of HIF-1α protein on the final blot using a polyclonal rabbit anti- HIF-1α antibody (#3716; Cell Signaling Technologies), secondary antibody plus HRP (NA934V), then ECL. The blots were then stripped and re-probed for β-actin protein as a control (as above).

[2] = test system: U251; assay: NCI 60 cytotoxicity screening; format: cell-based; conditions: Homo sapiens, U-251; U251, CNS
[3] = test system: CAKI-1; assay: NCI 60 cytotoxicity screening; format: cell-based; conditions: Homo sapiens; CAKI-1, Renal
[4] = test system: OVCAR-4; assay: NCI 60 cytotoxicity screening; format: cell-based; conditions: Homo sapiens; OVCAR-4, Ovarian
[5] = molecular target: Integrin β4 (Homo sapiens, UniProt P16144); assay: Surface plasmon resonance (Biacore); format: binding; conditions: Integrin β4, SPR
[6] = test system: HCT-15; assay: NCI 60 cytotoxicity screening; format: cell-based; conditions: Homo sapiens; HCT-15, Colon
[7] = molecular target: GADD45GIP1 (Homo sapiens, UniProt Q8TAE8); assay: Surface plasmon resonance (Biacore); format: binding; conditions: GADD45GIP1, SPR
[8] = molecular target: Integrin beta-2 (CD18) (Homo sapiens, UniProt P05107); assay: Surface plasmon resonance (Biacore); format: binding; conditions: CD18, SPR
[9] = molecular target: Renin receptor (ATP6IP2) (Homo sapiens, UniProt O75787); assay: Surface plasmon resonance (Biacore); format: binding; conditions: ATP6IP2, SPR
[10] = molecular target: T1, Catenin α2 (Homo sapiens, UniProt P26232); assay: Surface plasmon resonance (Biacore); format: binding; conditions: Catenin α2, SPR
T1 sequence (P26232 1-953): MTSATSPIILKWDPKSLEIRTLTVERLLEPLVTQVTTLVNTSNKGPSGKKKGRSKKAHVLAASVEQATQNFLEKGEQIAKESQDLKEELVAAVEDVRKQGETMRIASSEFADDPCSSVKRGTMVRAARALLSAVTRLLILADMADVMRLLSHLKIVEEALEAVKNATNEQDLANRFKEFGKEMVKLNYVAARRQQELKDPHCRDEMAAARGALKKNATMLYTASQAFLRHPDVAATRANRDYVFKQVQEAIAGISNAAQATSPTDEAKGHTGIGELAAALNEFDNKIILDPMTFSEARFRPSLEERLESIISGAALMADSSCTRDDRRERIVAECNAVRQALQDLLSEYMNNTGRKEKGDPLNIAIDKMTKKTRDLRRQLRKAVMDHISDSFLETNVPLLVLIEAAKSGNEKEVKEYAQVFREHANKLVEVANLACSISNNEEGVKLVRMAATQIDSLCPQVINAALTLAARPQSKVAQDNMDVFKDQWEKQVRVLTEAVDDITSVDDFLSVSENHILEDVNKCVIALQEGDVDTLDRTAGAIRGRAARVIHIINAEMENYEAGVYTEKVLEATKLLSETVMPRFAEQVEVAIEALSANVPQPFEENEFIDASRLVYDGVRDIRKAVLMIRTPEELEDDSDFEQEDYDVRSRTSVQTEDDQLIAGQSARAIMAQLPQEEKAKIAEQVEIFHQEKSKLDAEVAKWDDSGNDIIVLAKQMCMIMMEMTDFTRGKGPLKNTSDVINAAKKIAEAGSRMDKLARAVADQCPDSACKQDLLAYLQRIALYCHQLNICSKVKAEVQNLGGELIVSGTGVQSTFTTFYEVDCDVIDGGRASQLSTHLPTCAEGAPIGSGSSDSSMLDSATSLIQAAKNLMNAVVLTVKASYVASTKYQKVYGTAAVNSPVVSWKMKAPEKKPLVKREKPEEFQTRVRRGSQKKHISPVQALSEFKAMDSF

[11] = molecular target: T2, CEACAM5 (Homo sapiens, UniProt P06731); assay: Surface plasmon resonance (Biacore); format: binding; conditions: CEACAM5, SPR
T2 sequence (P06731 35-702): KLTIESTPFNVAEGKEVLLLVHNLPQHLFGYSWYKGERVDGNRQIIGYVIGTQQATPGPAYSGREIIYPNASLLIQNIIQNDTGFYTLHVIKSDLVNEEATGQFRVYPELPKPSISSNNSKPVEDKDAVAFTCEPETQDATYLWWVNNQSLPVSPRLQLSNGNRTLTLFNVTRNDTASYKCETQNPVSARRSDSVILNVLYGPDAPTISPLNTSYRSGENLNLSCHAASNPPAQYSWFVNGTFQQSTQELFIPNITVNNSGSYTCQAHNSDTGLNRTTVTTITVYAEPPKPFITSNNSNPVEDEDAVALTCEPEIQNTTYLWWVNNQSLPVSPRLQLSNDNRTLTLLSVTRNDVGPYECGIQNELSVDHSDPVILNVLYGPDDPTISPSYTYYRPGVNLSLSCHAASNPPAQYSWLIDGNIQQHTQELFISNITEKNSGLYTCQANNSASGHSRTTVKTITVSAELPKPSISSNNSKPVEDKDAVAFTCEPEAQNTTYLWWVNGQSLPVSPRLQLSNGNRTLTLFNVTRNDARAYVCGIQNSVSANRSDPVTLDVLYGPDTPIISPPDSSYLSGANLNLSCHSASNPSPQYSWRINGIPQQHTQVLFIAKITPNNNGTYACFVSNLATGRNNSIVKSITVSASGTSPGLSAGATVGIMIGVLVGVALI

[12] = test system: SR; assay: NCI 60 cytotoxicity screening; format: cell-based; conditions: Homo sapiens, Leukemia
[13] = test system: DU-145; assay: NCI 60 cytotoxicity screening; format: cell-based; conditions: Homo sapiens; DU-145, Prostate
[14] = test system: SK-MEL-5; assay: NCI 60 cytotoxicity screening; format: cell-based; conditions: Homo sapiens; SK-MEL-5, Melanoma

Chain of Renin receptor (ATP6IP2) (O75787 17-350): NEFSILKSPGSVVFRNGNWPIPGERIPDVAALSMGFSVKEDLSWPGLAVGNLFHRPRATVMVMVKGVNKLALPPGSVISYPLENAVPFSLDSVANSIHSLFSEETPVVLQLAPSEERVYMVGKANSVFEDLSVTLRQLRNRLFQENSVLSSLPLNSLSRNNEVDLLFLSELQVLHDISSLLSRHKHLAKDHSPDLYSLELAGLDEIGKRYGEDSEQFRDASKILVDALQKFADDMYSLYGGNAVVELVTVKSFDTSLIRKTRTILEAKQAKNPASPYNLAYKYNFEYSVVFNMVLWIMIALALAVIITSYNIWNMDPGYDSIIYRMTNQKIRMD
Chain of Integrin β4 (P16144 28-1822): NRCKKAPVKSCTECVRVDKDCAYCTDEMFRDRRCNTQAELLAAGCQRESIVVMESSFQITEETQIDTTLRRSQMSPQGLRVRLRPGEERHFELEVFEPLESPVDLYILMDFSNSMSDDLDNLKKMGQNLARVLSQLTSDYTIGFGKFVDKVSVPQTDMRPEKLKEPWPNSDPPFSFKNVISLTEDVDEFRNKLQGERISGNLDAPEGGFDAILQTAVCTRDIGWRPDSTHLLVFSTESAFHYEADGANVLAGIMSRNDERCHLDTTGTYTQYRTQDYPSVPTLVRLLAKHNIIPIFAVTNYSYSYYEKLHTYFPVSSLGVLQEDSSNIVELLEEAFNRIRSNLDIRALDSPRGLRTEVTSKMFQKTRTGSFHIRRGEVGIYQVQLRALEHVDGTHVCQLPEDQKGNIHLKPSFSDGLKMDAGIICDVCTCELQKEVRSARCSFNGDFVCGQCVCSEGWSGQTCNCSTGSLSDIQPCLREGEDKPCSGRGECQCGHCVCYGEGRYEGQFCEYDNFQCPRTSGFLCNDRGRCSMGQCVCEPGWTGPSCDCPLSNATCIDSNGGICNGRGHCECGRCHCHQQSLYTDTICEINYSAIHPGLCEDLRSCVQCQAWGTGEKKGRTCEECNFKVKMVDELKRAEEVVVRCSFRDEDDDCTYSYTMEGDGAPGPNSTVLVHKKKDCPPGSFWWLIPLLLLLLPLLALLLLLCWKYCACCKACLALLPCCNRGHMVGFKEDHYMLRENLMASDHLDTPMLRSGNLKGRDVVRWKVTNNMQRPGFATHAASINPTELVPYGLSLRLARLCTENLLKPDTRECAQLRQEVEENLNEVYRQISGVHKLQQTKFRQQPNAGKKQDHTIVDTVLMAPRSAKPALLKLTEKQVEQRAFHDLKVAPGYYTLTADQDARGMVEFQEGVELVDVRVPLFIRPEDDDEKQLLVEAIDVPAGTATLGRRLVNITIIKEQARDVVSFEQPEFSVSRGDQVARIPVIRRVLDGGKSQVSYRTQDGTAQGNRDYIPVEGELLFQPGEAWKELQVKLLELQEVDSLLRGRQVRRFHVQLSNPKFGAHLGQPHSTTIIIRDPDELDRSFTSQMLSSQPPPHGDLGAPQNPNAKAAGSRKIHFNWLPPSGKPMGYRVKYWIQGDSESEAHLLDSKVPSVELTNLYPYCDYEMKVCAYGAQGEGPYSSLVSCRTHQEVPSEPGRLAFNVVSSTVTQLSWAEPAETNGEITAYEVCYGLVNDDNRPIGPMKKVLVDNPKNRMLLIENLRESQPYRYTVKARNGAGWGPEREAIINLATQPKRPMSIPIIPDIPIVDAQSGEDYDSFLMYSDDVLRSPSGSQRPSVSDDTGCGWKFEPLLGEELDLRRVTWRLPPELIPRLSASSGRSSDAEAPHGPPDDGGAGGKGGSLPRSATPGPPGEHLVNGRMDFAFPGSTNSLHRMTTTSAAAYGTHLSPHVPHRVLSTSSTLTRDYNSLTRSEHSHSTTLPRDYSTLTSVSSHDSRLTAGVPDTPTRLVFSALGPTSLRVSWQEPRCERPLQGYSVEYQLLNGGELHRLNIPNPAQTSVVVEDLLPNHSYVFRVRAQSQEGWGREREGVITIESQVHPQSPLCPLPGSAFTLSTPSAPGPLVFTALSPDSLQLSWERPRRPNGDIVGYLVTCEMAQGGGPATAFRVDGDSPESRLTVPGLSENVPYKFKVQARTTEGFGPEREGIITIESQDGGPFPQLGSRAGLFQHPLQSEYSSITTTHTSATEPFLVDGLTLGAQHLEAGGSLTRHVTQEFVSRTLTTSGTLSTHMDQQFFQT
Chain of Integrin beta-2 (CD18) (P05107 23-769): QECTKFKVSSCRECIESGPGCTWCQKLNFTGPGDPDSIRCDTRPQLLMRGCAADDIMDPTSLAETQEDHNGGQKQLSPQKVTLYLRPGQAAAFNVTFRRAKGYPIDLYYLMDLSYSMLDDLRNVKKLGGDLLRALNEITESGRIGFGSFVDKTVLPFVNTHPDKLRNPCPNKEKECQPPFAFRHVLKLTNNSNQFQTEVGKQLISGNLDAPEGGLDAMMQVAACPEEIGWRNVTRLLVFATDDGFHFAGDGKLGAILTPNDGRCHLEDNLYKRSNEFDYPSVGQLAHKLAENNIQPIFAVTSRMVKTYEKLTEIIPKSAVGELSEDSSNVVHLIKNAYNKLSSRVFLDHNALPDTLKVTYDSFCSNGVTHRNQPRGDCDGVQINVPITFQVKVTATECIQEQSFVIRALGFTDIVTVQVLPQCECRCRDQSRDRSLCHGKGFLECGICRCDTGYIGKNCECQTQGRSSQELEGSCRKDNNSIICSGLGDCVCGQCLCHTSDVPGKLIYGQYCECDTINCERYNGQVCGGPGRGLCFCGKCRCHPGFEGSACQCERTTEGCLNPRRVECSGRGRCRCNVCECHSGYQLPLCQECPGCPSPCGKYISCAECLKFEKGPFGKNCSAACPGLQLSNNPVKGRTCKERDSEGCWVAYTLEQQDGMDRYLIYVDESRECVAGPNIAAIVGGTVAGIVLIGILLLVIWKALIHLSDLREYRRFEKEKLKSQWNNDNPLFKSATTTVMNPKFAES

## COc1ccc2[nH]c(-c3cccc(F)c3)cc(=O)c2c1O [CVM-1125]
[1]; COLO205, 100 nM
  reduction of HIF-1α protein levels: 9%
[1]; MDA-MB-231, 100 nM
  reduction of HIF-1α protein levels: 17%
[1]; SK-MEL28, 100 nM
  reduction of HIF-1α protein levels: 28%
[1]; SKOV3, 100 nM
  reduction of HIF-1α protein levels: 25%
[2]
  GI50: 42.9 nM
[3]
  GI50: 46.7 nM
[4]
  GI50: 43.6 nM
[5]
  Association (ka): No dose dependent interaction
  Dissociation (kd): No dose dependent interaction
  KD (kd/ka): No dose dependent interaction
[6]
  GI50: 35.5 nM
[7]
  Association (ka): No interaction
  Dissociation (kd): No interaction
  KD (kd/ka): No interaction
[8]
  Dissociation (kd): 1.08e-05 s⁻¹
[8]; read-out: Association (ka)
  kon: 14.4 M⁻¹ s⁻¹
[8]; read-out: KD (kd/ka)
  Kd: 748 nM
[9]
  Dissociation (kd): 0.021 s⁻¹
[9]; read-out: Association (ka)
  kon: 122000 M⁻¹ s⁻¹
[9]; read-out: KD (kd/ka)
  Kd: 173 nM
[10]
  Association (ka): No dose dependent interaction
  Dissociation (kd): No dose dependent interaction
  KD (kd/ka): No dose dependent interaction
[11]
  Association (ka): No interaction
  Dissociation (kd): No interaction
  KD (kd/ka): No interaction
[12]
  GI50: 12 nM
[13]
  GI50: 21.1 nM
[14]
  GI50: 29.8 nM
